Test results from patent publication US20260191889A1, “TREHALOSE FOR TREATING HUNTINGTON'S DISEASE” (GLD Debt Acquisition 2025-1, priority 2022, published 2026).

Key:
[1] = Safety profile from previous clinical trials of trehalose injection; format: in vivo, human; settings: metabolized by trehalase enzymes into 2 glucose molecules
Excerpt: Risks of study participation also includes the risk of an infusion reaction or infusion site reactions. […] If needed, the use of an implanted venous access device (i.e., Mediport) or percutaneous indwelling catheter is permitted; however, if small caliber indwelling catheters in peripheral vessels is required, they should be for single use only. Additional risks include those risks related to venipuncture (e.g., hematoma, bleeding, pain, infection), which are low, and the risk of progression of disease for participants assigned to receive.

[2] = test system: transgenic R6/2 mice (a disease model for Huntington's Disease); experiment: Body weight of R6/2 mice after treatment with MT; format: in vivo, Mus musculus; settings: MT 5 g/kg i.p. 5 times per week, average±standard error (±0.6), vehicle 16.5, wild-type 30.7
Protocol: (§1) Eleven male mice were treated with trehalose 5 g/kg (i.p. injection, 25 ml/kg, trehalose dose formulation concentration: 0.2 g/ml, with active trehalose corresponding to 5.252 g/kg of trehalose dihydrate), 5 times per week starting at 4 weeks of age. There were a total of 41 doses or doses stopped when mice were euthanized. Mice were euthanized at 8 weeks after first trehalose dose (12 weeks of age, n=8). n=3 mice/group were monitored until survival.
Body Weights—Body weights were monitored twice per week throughout the study for all animals. Pre-trehalose treatment onset baseline body weight was used to assign the animals to experimental groups. Terminal body weights were not registered from animals found dead or euthanized moribund.
MT was administered to mice i.p. 5 times per week (from Monday to Friday). Dose volume was 25 ml/kg. Dose was 5 g/kg. Pure trehalose dose formulation concentration was 0.2 g/ml. The last dose of animals euthanized at 8 weeks post infusion (age week 12) was 30 min prior to terminal sampling.
Body Weight—Comparisons between two groups used a two-way Mixed-effects model (Mixed Anova) with Geisser-Greenhouse correction (not assuming sphericity), followed by Fisher's LSD test between the two groups performed for each time point. Time, group and the interaction of Time×Group were fixed effects, and the individual subject was the random effect. […]

[3] = test system: GFAP; experiment: GFAP immunohistochemistry in brain of R6/2 mice; format: in vivo, Mus musculus; settings: MT-treated vs untreated transgenic R6/2 mice, FIG. 4
Protocol: (§2) Cryosectioning—Cryosectioning was performed to striatal (left hemisphere) (Bregma +1.30 mm to −0.8 mm from Bregma, containing the infusion site at +0.5 mm) region and sections were collected as 20 μm thick sections on slides. A series of sections consisted of 8 sections with an interval of 300 μm in-between each section. A total of 5 series were collected from the target region using subsequent slides. For phase I, Series 1 & 3 were used for IHC analysis of EM48, series 2 was used for Darpp-32, series 4 was used for Iba1+GFAP and Series 5 was used for piloting and negative controls. For phase II, A total of 6 series were collected from the target region using subsequent slides. Series 1 was used for IHC analysis of EM48, series 2 was used for Darpp-32, series 4 was used for Iba1+GFAP. […]
(§3) For fluorescence immunohistochemistry (GFAP and Iba-1) the following general protocol was applied: […]
(§4) Antigen expression analyses—The stained sections were scanned with the Olympus VS120 slide scanner using the proper fluorescent or brightfield channels. The regions of interest (ROIs) (striatum/cortex) were analyzed for positive immunostaining of the respective targets (EM48, DARPP-32, GFAP and Iba1) applying the VIS—Visiopharm Integrator System (Visiopharm, Denmark).
(§5) Positive staining of the respective antigens was detected by applying a suitable threshold which recognizes only truly positive staining. […]

[4] = administered orally in humans; cleaved by gut trehalase; cited from earlier work
[5] = test system: Huntington's disease (HD); experiment: Clinical scores of a subject with HD on weekly IV trehalose; format: in vivo, human
Protocol: This study consisted of a 2-week screening period, a 24-week open-label treatment period, and a 2-week safety follow-up period. Eligible subjects received substantially purified trehalose, administered as a once weekly IV infusion over 60 minutes±5 min for volumes≤600 mL or 90 minutes±5 min for volumes>600 mL. The total volume of the infusion was based on the weight of the subject and a dose of 0.75 g trehalose per kg of subject weight (g/kg). An additional 52 weeks of open-label trehalose treatment was planned for consenting subjects who were determined to be medically appropriate after their completion of the primary 24-week open-label treatment period. The primary study objectives were to determine safety and tolerability, and treatment responses associated with trehalose administered to subjects with HD. Safety and tolerability were determined by incidences of treatment-emergent adverse events (TEAEs) and serious adverse events ([…]), including clinically significant laboratory or diagnostic testing abnormalities. Laboratory samples, electrocardiograms (ECGs), and a rating on the Columbia Suicide Severity Rating Scale (C-SSRS) were obtained from the subject at the screening/baseline and during week 4, week 12, and week 24. Physical and neurological examinations of the subject were conducted at the screening/baseline and during week 12 and week 24. Vital signs and adverse events (AEs) of the subject were obtained at visits for study drug infusions and any unscheduled visits. In addition, AEs of the subject were obtained by scheduled or unscheduled telephone communications. Treatment responses were determined by assessments and comparative analyses of the following clinical scores that were obtained at the screening/baseline and follow-up study visits. All subjects completed the Patient Global Impression of Change (PGIC), the Clinical Global Impression of Change (CGIC), and the Clinical Global Impression of Severity (CGI-S) during week 4, week 8, week 12, week 18, and week 24. In addition, all participants completed the Patient's Global Impression of Severity (PGI-S), EQ Visual Analog Scale (EQ-VAS), and the CGI-S on day 1 and during week 4, week 8, week 12, week 18, and week 24. At the screening/baseline and during week 4, week 8, week 12, week 18, and week 24, subjects completed the UHDRS-TFC and the UHDRS-Independence Scale.

[6] = test system: Iba-1; experiment: Iba-1 immunohistochemistry in brain of R6/2 mice; format: in vivo, Mus musculus; settings: MT-treated vs untreated transgenic R6/2 mice, FIG. 5
Protocol: as §2, §3, §4, §5

[7] = test system: DARPP-32; experiment: DARPP-32 immunohistochemistry in brain of R6/2 mice; format: in vivo, Mus musculus; settings: MT-treated vs untreated transgenic R6/2 mice, FIG. 1
Protocol: as §2, with “Iba1+GFAP. Series 5 was collected as spare samples and series 6 was used for piloting and negative controls.” for “Iba1+GFAP.”
as §4, §5

[8] = test system: neurofilament light chain (NfL) protein; experiment: NfL concentration in blood serum of a subject with HD on weekly IV trehalose; format: in vivo, human; settings: subject 02-001 (HD)
Protocol: This study consisted of a 2-week screening period, a 24-week open-label treatment period, and a 2-week safety follow-up period. Eligible subjects received substantially purified trehalose, administered as a once weekly IV infusion over 60 minutes±5 min for volumes≤600 mL or 90 minutes±5 min for volumes>600 mL. The total volume of the infusion was based on the weight of the subject and a dose of 0.75 g trehalose per kg of subject weight (g/kg). An additional 52 weeks of open-label trehalose treatment was planned for consenting subjects who were determined to be medically appropriate after their completion of the primary 24-week open-label treatment period.
Blood samples were obtained from subjects at the screening/baseline and during week 12 and week 24 for analyses. Blood serum was to determine the concentration of neurofilament light chain (NfL) protein in blood serum before and after initiation of trehalose treatment. Nfl concentrations in blood serum were measured using a Simoa® NF-light™ Advantage Kit by Quanterix. Higher concentrations of Nfl in subject blood serum is an indicator of clinical severity of HD, and lower concentrations compared to concentrations of the same subject indicates reversal or slowing of HD progression.

[9] = test system: EM48 (huntingtin protein; mHTT aggregates); experiment: EM48 immunohistochemistry in brain of R6/2 mice; format: in vivo, Mus musculus; settings: MT-treated vs untreated transgenic R6/2 mice
Protocol: as §2, with “Iba1+GFAP. Series 5 was collected as spare samples and series 6 was used for piloting and negative controls.” for “Iba1+GFAP.”
as §4, §5

[10] = test system: transgenic R6/2 mice (a disease model for Huntington's Disease); experiment: Lifespan of R6/2 mice after treatment with MT; format: in vivo, Mus musculus; settings: MT 5 g/kg i.p. 5 times per week from 4 weeks of age, vehicle 101, wild-type 181
Protocol: The objective of this study was to assess the effects of molecular trehalose (MT) in the R6/2 mouse model of Huntington's disease through intraperitoneal (IP) injections. Treated mice […] were administered (i.e. dosed) with a MT intraperitoneal (i.p.) injection. Mice were weighed twice per week until 8 weeks post infusion i.e., 12 weeks of age or followed until survival. At a minimum of 8 weeks post infusion or MT dosing, mice were sacrificed 30 minutes after last MT, and the following tissues were collected: blood, brain, and tail. Immunohistochemistry analysis for GFAP, Iba1, EM-47 and Darpp-32 were performed on brain hemisphere 1 samples and the amount of MT in blood and brain hemisphere 2 samples was determined.
Male R6/2 (B6CBA-Tg(HDexon1)62Gpb/3J) (The Jackson Laboratory, USA, JAX stock: 006494) mice (Mus musculus) between the ages of 28-33 days were used in this study. […]
as §1, with “There were a total of 41 doses or doses stopped when mice were euthanized.” left out, “survival. […]” for “survival.”

[11] = 3 months (12 weeks), 0.75 g/kg IV once weekly
[12] = after 3 months (12 weeks), 0.75 g/kg IV once weekly

**Q.** For `OC[C@H]1O[C@H](O[C@H]2O[C@H](CO)[C@@H](O)[C@H](O)[C@H]2O)[C@H](O)[C@@H](O)[C@@H]1O` [MT, trehalose], which active metabolites [1] is on record?
**A.** The active metabolites was “no active metabolites”.

**Q.** And the “average final body weight” value [2]?
**A.** Its value is 21.5 g.

**Q.** What about the “levels of GFAP in the striatum (IHC, % staining area)” value [3] of the same molecule?
**A.** Its value is “lower levels”.

**Q.** What about the “trehalose reaching systemic circulation” value [4] of the same molecule?
**A.** Its value is < 0.5%.

**Q.** And the CGI-S rating ([5]; 3 months (12 weeks))?
**A.** Its CGI-S rating is “A Little Better”.

**Q.** What about the CGIC rating ([5]; 3 months (12 weeks)) of the same molecule?
**A.** The CGIC rating was “A Little Better”.

**Q.** And the “change in the UHDRS Functional Capacity” value [5, 11]?
**A.** The value was “no change”.

**Q.** What about the “change in the UHDRS Independence Scale” value [5, 11] of the same molecule?
**A.** The value was “no change”.

**Q.** And the “Global impression of Health on a Visual Analog Scale” value [5, 12]?
**A.** The value was 90.

**Q.** What about the “mini-mental status examination (MMSE) score” value [5, 12] of the same molecule?
**A.** The value was 27.

**Q.** What about the “Global impression of Health on a Visual Analog Scale” value ([5]; baseline) of the same molecule?
**A.** Its value is 70.

**Q.** And the “mini-mental status examination (MMSE) score” value ([5]; baseline)?
**A.** Its value is 26.

**Q.** And the “levels of Iba-1 in the striatum (IHC, % staining area)” value [6]?
**A.** Its value is “lower levels”.

**Q.** And the “levels of DARPP-32 in the striatum (IHC, positive cells/mm^2)” value [7]?
**A.** Its value is “lower levels”.

**Q.** What about the “NfL Protein Concentration” value ([8]; Screening / Day 0 (baseline before treatment)) of the same molecule?
**A.** The value was 21.20 pg/mL.

**Q.** What about the “NfL Protein Concentration” value ([8]; Week 12 / Day 84, 0.75 g/kg IV once weekly) of the same molecule?
**A.** Its value is 17.55 pg/mL.

**Q.** What about the “NfL Protein Concentration” value ([8]; Week 24 / Day 168, 0.75 g/kg IV once weekly) of the same molecule?
**A.** The value was 19.95 pg/mL.

**Q.** And the “levels of EM48 in the cortex (IHC, positive cells/mm^2)” value ([9]; FIG. 2)?
**A.** The value was “lower levels”.

**Q.** What about the “levels of EM48 in the striatum (IHC, positive cells/mm^2)” value ([9]; FIG. 3) of the same molecule?
**A.** The value was “lower levels”.

**Q.** What about the median lifespan [10] of the same molecule?
**A.** The median lifespan was 119 days.
